Experimental data from patent US11180461B2, “Triazoles as Kv3 inhibitors” (AUTIFONY THERAPEUTICS LIMITED, priority 2012, dated 2021).

Columns and labels:
[1] = target: T1, human Kv3.2 channels (hKv3.2) (Homo sapiens, UniProt Q96PR1); test: hKv3.2 recombinant cell assay, IonWorks Quattro planar array electrophysiology; type: cell-based; details: activity quantified by EC50
T1 construct: expressed in transfected cells
T1 sequence (Q96PR1 1-638): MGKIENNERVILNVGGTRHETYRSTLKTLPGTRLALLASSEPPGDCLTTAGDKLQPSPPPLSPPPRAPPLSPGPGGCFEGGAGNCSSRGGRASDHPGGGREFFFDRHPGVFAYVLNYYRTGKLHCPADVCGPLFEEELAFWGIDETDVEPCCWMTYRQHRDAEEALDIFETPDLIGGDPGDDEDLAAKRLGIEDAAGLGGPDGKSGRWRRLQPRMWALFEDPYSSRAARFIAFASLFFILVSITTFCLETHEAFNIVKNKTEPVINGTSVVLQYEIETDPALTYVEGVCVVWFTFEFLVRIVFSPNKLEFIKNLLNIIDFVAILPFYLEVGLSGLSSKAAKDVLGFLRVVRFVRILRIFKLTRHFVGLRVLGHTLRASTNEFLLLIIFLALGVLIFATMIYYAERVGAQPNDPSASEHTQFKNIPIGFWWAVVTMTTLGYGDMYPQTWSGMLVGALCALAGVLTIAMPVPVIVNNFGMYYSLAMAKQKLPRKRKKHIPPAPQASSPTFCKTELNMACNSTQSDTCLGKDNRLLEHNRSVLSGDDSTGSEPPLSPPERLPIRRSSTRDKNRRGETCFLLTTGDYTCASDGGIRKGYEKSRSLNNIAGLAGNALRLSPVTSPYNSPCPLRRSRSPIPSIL
Description: The ability of the compounds of the invention to modulate the voltage-gated potassium channel subtypes Kv3.2/3.1 may be determined using the following assay. The assay may also be used to determine the ability of compounds of the invention to modulate the voltage-gated potassium channel Kv3.3. Analogous methods may be used to investigate the ability of the compounds of the invention to modulate other channel subtypes.
To assess compound effects on human Kv3.2 channels (hKv3.2), a stable cell line expressing human Kv3.2 channels (hKv3.2) was created by transfecting Chinese Hamster Ovary (CHO)—K1 cells with a pCIH5-hKv3.2 vector. Cells were cultured in DMEM/F12 medium supplemented by 10% Foetal Bovine Serum, 1× non-essential amino acids (Invitrogen) and 500 ug/ml of Hygromycin-B (Invitrogen). Cells were grown and maintained at 37° C. in a humidified environment containing 5% CO2 in air. […]
Experiments were conducted at room temperature using IonWorks Quattro™ planar array electrophysiology technology (Molecular Devices Corp.) with PatchPlate™ PPC. […] Planar electrode hole resistances (Rp) were determined by applying a 10 mV voltage step across each well. […] Test pulses protocol may be performed in the absence (pre-read) and presence (post-read) of the test compound. Pre- and post-reads may be separated by the compound addition followed by a 3 minute incubation. […]

[2] = Determination of in vivo pharmacokinetic parameters (blood and brain) in rats, with and without Elacridar; details: rat, oral 1 mg/kg
Procedure: Adult male rats (Charles River, Italy) were dosed with test compound orally at 1 mg/kg (5 ml/kg, in 5% v/v DMSO, 0.5% w/v HPMC in water) and intravenously at 0.5 mg/kg (2 ml/kg, in 5% v/v DMSO 40% w/v PEG400 in saline). After oral administration, blood samples were collected under deep Isofluorane anesthesia from the portal vein and heart of each rat (1 rat per time point). After intravenous administration, serial blood samples were collected from the lateral tail vein of each rat. A further group of rats (n=1 per test compound) received a single intravenous administration of the PgP transport inhibitor, Elacridar (3 mg/kg) shortly before the oral administration of the test compound at 1 mg/kg, as above. Blood and brain samples were collected at a single timepoint of 0.5 h after dose administration for these animals. In all cases, blood samples were collected into potassium EDTA tubes.
Blood and brain samples were assayed for test compound concentration using a method based on protein precipitation with acetonitrile followed by HPLC/MS-MS analysis with an optimized analytical method.
The concentrations of test compound in blood (expressed as ng/ml) and brain (expressed as ng/g) at the different time points following either oral or intravenous dosing were analysed using a non-compartmental pharmacokinetic model using WinNonLin Professional version 4.1. The following parameters were drived:
Intravenous dosing: Maximum concentration over time (Cmax), integrated concentration over time (AUC), clearance (Clb), volume of distribution (Vss) and half-life (t1/2).
Oral dosing: Cmax, time of maximum concentration (Tmax), AUC, bioavailability (F %), fraction absorbed (Fa %), blood to brain ratio (AUC BB), and Fold-change in AUC BB in the presence of Elacridar.

AUC BB relative to Reference Example 87 and Reference Example 88 of WO2011069951A1 ([2]; AUC BB from blood and brain): at least two fold
change in AUC BB in the presence of Elacridar ([2]; Elacridar 3 mg/kg i.v., blood and brain at 0.5 h, p-glycoprotein interaction): limited change
Structure (SMILES): Cc1n[nH]c(=O)n1-c1ccc(Oc2cccc3c2C2(CC2)CO3)nc1 [Example 15, 5-methyl-4-[6-(spiro[1-benzofuran-3,1′-cyclopropan]-4-yloxy)pyridin-3-yl]-2,4-dihydro-3H-1,2,4-triazol-3-one]
selectivity for modulation of Kv3.2 channels over Kv3.1 channels [1]: demonstrates selectivity for Kv3.2 channels
